Where two headings read alike, the source gives them in different places. Some results are limits rather than exact numbers.

These results are taken from article doi:10.1101/757047v1 (biorxiv, 2019).

Assay [1] addresses T1, full length GAK protein N-terminally fused with NanoLuc luciferase (Homo sapiens, UniProt O14976).
T1 sequence (O14976 2-1311): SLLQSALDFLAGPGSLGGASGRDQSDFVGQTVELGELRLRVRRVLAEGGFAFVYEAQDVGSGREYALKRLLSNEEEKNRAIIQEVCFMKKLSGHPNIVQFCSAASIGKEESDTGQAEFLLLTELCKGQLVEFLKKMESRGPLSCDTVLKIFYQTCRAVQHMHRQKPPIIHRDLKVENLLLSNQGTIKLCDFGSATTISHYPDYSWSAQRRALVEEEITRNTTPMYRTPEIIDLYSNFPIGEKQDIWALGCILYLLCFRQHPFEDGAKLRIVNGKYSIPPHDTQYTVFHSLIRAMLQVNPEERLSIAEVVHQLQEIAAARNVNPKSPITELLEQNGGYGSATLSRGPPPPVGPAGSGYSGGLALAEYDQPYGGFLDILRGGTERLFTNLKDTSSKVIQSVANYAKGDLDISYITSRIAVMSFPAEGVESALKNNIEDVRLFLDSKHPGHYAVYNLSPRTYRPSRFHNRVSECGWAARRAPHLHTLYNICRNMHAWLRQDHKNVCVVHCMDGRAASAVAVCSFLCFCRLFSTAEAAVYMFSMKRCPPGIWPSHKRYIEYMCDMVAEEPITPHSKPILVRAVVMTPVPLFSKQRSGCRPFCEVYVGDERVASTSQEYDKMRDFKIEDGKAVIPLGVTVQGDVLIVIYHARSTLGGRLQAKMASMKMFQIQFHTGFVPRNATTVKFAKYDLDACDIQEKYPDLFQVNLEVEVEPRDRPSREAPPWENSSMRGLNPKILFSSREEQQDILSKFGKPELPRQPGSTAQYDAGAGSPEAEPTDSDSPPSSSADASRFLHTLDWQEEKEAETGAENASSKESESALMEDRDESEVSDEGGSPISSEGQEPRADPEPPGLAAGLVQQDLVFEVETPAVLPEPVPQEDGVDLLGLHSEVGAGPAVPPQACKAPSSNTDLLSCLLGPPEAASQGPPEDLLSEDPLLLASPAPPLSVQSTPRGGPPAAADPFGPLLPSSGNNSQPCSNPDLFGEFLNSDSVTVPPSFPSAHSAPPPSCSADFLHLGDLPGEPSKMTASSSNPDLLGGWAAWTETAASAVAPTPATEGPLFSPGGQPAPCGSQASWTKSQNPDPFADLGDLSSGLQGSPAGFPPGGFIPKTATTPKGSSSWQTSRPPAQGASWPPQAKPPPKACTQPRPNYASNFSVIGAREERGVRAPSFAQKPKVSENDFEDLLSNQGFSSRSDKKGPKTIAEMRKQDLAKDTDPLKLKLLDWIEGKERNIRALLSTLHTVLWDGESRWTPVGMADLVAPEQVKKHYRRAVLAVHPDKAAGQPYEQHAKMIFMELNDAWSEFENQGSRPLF
Kind of assay: cell-based. Also noted: species or system HEK293T.

The target in assay [2] is T2, STK10 (Homo sapiens, UniProt O94804). Kind of assay: biochemical.
T2 sequence (O94804 36-294 limits assumed): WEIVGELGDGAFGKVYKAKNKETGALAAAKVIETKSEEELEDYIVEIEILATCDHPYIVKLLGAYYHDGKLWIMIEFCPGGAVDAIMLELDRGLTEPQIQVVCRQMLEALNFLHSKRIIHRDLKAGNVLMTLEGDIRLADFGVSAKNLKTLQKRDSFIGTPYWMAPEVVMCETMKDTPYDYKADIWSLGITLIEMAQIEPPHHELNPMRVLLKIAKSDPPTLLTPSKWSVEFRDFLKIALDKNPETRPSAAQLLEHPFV
Assay [3] concerns the target T3, GAK (Homo sapiens, UniProt O14976).
T3 sequence (O14976 12-347 limits assumed): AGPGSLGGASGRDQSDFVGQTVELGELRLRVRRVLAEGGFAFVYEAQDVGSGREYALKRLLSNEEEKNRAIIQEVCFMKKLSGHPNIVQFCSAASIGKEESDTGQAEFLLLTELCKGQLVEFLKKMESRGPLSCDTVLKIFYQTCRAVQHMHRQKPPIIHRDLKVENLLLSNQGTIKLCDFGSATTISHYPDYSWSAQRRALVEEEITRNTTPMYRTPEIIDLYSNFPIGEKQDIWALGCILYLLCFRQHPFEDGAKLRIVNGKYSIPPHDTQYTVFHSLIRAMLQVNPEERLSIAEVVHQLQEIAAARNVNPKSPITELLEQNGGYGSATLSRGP
Kind of assay: biochemical.

Assay [4] deals with T4, SLK (Homo sapiens, UniProt Q9H2G2). Kind of assay: biochemical.
T4 sequence (Q9H2G2 34-292): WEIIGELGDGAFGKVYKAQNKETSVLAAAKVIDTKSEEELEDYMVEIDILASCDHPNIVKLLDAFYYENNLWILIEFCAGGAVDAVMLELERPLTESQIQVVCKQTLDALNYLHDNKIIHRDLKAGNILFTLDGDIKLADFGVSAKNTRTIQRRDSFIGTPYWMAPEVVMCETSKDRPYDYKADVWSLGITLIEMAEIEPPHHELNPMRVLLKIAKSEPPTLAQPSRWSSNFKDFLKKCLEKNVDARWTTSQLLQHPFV
Assay [5] has as its target T1, full length GAK protein N-terminally fused with NanoLuc luciferase. Kind of assay: cell-based. Also noted: species or system HEK293T. The source holds these as a separate data set.
The target of assay [6] is T2, STK10. As to the kind of experiment: biochemical. This is another data set of the same source.
The target of assay [7] is T3, GAK. Kind of assay: biochemical. The source holds these as a separate data set.
The target of assay [8] is T4, SLK. As to the kind of experiment: biochemical. This is another data set of the same source.
In assay [9] the target is T2, STK10. Kind of assay: biochemical. This is another data set of the same source.
In assay [10] the target is T4, SLK. As to the kind of experiment: biochemical. This is another data set of the same source.
The target of assay [11] is T4, SLK. Kind of assay: biochemical. This is another data set of the same source.
In assay [12] the target is T3, GAK. As to the kind of experiment: biochemical. This is another data set of the same source.
Assay [13] deals with T1, full length GAK protein N-terminally fused with NanoLuc luciferase. As to the kind of experiment: cell-based. Also noted: species or system HEK293T. The source holds these as a separate data set.

Broadly, the IC50 is the concentration that inhibits the measured activity by half. A higher IC50 goes with a need for much substance. A word on the Ki: it is the equilibrium dissociation constant of an inhibitor or competing ligand from its target. Compound `C#Cc1cccc(Nc2c(C#N)cnc3cc(Cl)ccc23)c1` [compound 84, 84] gave an IC50 in [1] of over 5000 nM. For the same compound, the Ki is 210 nM in assay [2], 28 nM in assay [3] and 180 nM in assay [4].

Regarding `C#Cc1cccc(Nc2c(C#N)cnc3ccc(Br)cc23)c1` [compound 78, 78], in assay [1], half-maximal inhibition (IC50) required 4400 nM. Also, the figures for the inhibition constant Ki in assay [2], in [3] and in assay [4] were 1100 nM, 17 nM and 1200 nM, respectively.

The compound `Fc1ccc(Nc2ccnc3ccc(Br)cc23)cc1F` [compound 104, 104] came in with an IC50 in assay [5] of over 5000 nM. Further, the Ki in assay [6] was over 55000 nM; in assay [7] it was 11 nM; in assay [8], over 55000 nM.

In assay [1], `C#Cc1cccc(Nc2c(C#N)cnc3ccc(I)cc23)c1` [compound 79, 79] displayed an IC50 of over 5000 nM. The Ki in assay [2] was found to be 1000 nM; in assay [3], 20 nM; in assay [4], 1100 nM.

`Fc1ccc(Nc2ncnc3ccc(Br)cc23)cc1` [compound 109, 109]: the IC50 in assay [5] was over 5000 nM. The values for the Ki in assay [6], in assay [7] and in [8] were over 55000 nM, 120 nM and over 55000 nM, respectively.

Take `Fc1cccc(Nc2ccnc3ccc(Br)cc23)c1` [compound 110, 110]: half-maximal inhibition in assay [5] (IC50) required 1900 nM. Also, the Ki in assay [6] was over 55000 nM; in [7], 19 nM; in [8], over 55000 nM.

In turn, `C#Cc1cccc(Nc2c(C#N)cnc3cc(Br)ccc23)c1` [compound 85, 85] came in with an IC50 in [1] of over 5000 nM. Besides, the results for the inhibition constant (Ki) in [2], in assay [3] and in assay [4] were 130 nM, 27 nM and 160 nM, respectively.

Consider `C#Cc1cccc(Nc2c(C#N)cnc3ccc(Cl)cc23)c1` [compound 77, 77], for which, in assay [1], the IC50 was 3200 nM. Besides, the inhibitory constant (Ki) in [2] was 720 nM; in assay [3] it was 16 nM; in assay [4], 710 nM.

In the case of `C#Cc1cccc(Nc2c(C#N)cnc3cc(OC)c(OC)cc23)c1` [compound 82], the Ki was determined as 27 nM in [9] and 18 nM in assay [10].

`Fc1ccccc1Nc1ccnc2ccc(Br)cc12` [compound 111, 111] had an IC50 in assay [5] of 2600 nM. Besides, the inhibition constant (Ki) in [6] is 30000 nM; in assay [7], 49 nM; in assay [8], over 55000 nM.

As to `Fc1cc(F)cc(Nc2ccnc3ccc(Br)cc23)c1` [compound 105, 105], the half-inhibitory concentration (IC50) in assay [5] is over 5000 nM. Further, the Ki in assay [6] is over 55000 nM; in [7] it was 12 nM; in assay [8], over 55000 nM.

Compound `Brc1cccc(Nc2ncnc3ccc(Br)cc23)c1` [compound 113, 113] returned a half-inhibitory concentration (IC50) in assay [5] of over 5000 nM. For the same compound, the Ki in assay [6] is 6000 nM; in [7] it was 84 nM; in assay [8], 9400 nM.

Turning to `C#Cc1cccc(Nc2ncnc3cc(C#N)ccc23)c1` [compound 67, 67], the inhibition constant Ki in assay [11] came to 260 nM; in assay [12] it was 100 nM. This compound also registered a half-maximal inhibitory concentration (IC50) in [13] of over 5000 nM.

In [5], `Brc1cccc(Nc2ccnc3ccc(Br)cc23)c1` [compound 112, 112] registered an IC50 of over 5000 nM. The Ki in [6] is over 55000 nM; in [7] it was 72 nM; in assay [8], over 55000 nM.

With `Fc1cc(Nc2ccnc3ccc(Br)cc23)cc(F)c1F` [compound 103, 103], in assay [5], the IC50 was determined as 4400 nM. Moreover, the Ki in assay [6] is over 55000 nM; in assay [7] it was 23 nM; in assay [8], over 55000 nM.

`C#Cc1cccc(Nc2c(C#N)cnc3ccccc23)c1` [compound 75, 75]: in [1], the 50% inhibitory concentration (IC50) was determined as 1500 nM. In addition, the Ki in assay [2] was found to be 340 nM; in assay [3], 18 nM; in assay [4] it was 350 nM.

Compound `C#Cc1cccc(Nc2c(C#N)cnc3ccc(F)cc23)c1` [compound 76, 76] had an IC50 in assay [1] of 3800 nM. Moreover, the results for the Ki in assay [2], in assay [3] and in assay [4] were 580 nM, 26 nM and 540 nM, respectively.

The compound `C#Cc1cccc(Nc2c(C#N)cnc3ccc(S(C)(=O)=O)cc23)c1` [compound 80, 80] displayed an IC50 in [1] of over 5000 nM. Also, the results for the inhibition constant (Ki) in assay [2], in assay [3] and in assay [4] were 42000 nM, 180 nM and over 55000 nM, respectively.
